From patent US20150274735A1, “USE OF A TETRASUBSTITUTED PYRAZOLO[4, 3-D]PYRIMIDINE COMPOUND FOR TREATING DIABETIC NEPHROPATHY” (priority 2012, published 2015) come the findings set out here.

A short description of series [1]: Single-dose toxicity/toxicokinetic study of polymorph forms in rats. The note with it: equivalent doses 100 and 300 mg/kg. The class given is in vivo.
Series [2] is described as follows: Single-dose toxicity/toxicokinetic study of polymorph forms in dogs. The format is in vivo. The note with it: equivalent dose 100 mg/kg.
The next series concerns the target T1, rat PDE5 (Rattus norvegicus, UniProt O54735).
T1 construct: rat and dog platelet-derived PDE5; from tissue; host or cells: rat platelets
The series can be described thus: PDE5 enzyme (rat platelet) inhibition. The class given is biochemical. Particulars: rat platelet-derived enzyme.

Series [3] deals with T2, dog platelet-derived PDE5 (Canis lupus familiaris, UniProt O77746).
T2 construct: rat and dog platelet-derived PDE5; from tissue; host or cells: dog platelets
The series can be described thus: PDE5 enzyme (dog platelet) inhibition. The class given is biochemical.

Series [4] deals with isolated rat aortic rings. The series can be described thus: Aortic ring relaxation (rat). Particulars: read-out: Aortic ring vasorelaxation EC50.
The test system of series [5] is spontaneously hypertensive rats (SHR). As to the kind of experiment: Antihypertensive efficacy in conscious SHR, oral dosing, radiotelemetry. The format is in vivo, rat. Particulars: for Effect on mean arterial pressure (MAP): 14-day dosing period.
The target of series [6] is PDE6 enzyme (human retinal cone) (Homo sapiens, UniProt P51160). The series can be described thus: PDE6 enzyme (human retinal cone) inhibition. The class given is biochemical.
The target of series [7] is T3, PDE6 enzyme (human retinal rod) (Homo sapiens, UniProt P16499+P35913).
T3 construct: against human retinal cone and rod; from tissue; host or cells: human retina (rod)
T3 sequence (P16499 2-857 limits assumed): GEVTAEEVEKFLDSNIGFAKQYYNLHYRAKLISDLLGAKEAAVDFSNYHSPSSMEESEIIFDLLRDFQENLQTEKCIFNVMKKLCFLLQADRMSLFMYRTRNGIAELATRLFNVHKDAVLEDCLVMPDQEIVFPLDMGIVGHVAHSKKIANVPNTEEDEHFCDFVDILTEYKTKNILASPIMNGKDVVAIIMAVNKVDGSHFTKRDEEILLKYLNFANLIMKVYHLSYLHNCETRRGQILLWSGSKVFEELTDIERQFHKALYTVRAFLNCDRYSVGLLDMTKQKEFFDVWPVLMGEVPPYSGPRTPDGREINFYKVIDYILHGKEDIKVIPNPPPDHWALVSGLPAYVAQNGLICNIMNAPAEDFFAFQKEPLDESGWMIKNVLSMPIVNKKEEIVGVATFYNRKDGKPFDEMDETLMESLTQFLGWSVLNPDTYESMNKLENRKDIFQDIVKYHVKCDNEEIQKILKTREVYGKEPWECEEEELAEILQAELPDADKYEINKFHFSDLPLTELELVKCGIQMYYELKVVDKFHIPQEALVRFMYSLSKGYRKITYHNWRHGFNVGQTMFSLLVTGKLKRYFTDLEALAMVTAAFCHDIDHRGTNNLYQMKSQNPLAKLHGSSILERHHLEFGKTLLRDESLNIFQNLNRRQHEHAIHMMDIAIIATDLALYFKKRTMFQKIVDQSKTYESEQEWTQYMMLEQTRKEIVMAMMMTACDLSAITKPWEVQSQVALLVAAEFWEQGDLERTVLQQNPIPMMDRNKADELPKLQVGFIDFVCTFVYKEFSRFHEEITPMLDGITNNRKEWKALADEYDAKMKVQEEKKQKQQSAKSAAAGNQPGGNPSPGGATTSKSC
T3 sequence (P35913 2-851 limits assumed): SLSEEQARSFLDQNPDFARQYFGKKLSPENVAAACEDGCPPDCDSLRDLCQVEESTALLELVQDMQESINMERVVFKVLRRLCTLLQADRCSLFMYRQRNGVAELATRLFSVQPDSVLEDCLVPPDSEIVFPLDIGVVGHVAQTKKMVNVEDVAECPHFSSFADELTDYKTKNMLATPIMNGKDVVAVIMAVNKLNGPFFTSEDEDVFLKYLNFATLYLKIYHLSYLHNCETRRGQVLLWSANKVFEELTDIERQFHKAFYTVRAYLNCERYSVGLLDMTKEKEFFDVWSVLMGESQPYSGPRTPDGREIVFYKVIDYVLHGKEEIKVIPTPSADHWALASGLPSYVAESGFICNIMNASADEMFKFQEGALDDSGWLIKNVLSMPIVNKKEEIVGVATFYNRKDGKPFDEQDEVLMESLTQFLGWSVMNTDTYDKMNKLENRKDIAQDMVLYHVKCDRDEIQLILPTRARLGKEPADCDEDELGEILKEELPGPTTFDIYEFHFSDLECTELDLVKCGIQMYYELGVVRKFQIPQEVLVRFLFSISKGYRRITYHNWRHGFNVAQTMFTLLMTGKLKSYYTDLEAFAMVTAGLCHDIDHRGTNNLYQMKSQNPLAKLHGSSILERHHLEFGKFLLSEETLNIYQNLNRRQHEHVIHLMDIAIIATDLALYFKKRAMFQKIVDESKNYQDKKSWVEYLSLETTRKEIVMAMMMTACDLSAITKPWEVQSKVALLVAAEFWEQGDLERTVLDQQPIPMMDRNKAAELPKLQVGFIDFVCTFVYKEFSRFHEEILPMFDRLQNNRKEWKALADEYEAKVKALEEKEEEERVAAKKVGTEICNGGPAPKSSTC
The series can be described thus: PDE6 enzyme (human retinal rod) inhibition. The format is biochemical.

The target in the next series is human PDE11 (Homo sapiens, UniProt Q9HCR9). The series can be described thus: PDE11 enzyme (human) inhibition. The format is biochemical.
Sequence of human PDE11 (Q9HCR9 whole entry): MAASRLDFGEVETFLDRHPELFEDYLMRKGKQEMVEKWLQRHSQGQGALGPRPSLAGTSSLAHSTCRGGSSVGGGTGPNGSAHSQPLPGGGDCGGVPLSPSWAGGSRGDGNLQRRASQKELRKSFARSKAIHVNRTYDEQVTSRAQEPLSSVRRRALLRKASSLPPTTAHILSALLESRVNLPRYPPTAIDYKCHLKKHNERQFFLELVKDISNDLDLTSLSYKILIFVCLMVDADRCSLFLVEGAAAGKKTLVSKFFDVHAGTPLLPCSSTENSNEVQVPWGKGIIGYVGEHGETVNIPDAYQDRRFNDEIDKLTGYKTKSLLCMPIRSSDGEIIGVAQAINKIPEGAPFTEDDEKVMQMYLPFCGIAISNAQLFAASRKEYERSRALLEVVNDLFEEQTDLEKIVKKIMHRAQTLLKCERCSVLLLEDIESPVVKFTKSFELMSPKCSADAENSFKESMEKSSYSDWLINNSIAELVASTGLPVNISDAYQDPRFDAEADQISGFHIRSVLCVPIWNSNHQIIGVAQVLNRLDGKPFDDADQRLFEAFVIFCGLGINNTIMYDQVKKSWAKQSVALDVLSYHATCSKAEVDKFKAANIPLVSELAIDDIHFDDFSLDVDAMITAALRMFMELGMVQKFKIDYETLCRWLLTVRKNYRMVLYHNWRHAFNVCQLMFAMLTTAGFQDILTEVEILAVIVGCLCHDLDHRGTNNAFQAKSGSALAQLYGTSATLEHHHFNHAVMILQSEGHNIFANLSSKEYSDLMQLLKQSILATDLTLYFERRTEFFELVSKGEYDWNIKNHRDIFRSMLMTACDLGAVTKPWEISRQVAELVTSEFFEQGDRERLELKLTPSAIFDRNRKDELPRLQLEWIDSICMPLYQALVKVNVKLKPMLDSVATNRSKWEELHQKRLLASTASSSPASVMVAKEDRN
The subject of another series is dog Purkinje fiber. As to the kind of experiment: Dog Purkinje fiber assay. The note with it: up to 10 μM (4.77 μg/mL). From the text:
(§1) For in vivo studies, the oral route of exposure was used. Rats given diazepam or frusemide served as positive controls in the locomotor activity and fluid/electrolyte excretion studies, respectively. Dofetilide was used for assay validity or a positive control in the dofetilide and hERG assays, respectively. Positive controls or animals given positive controls were not assessed concurrently in the remaining studies as these studies utilized well-characterized models to evaluate safety parameters.

The next series can be described thus: clinical. The note with it: male, human, in vivo. As to the method:
(§2) Both single and multiple dose clinical studies were conducted with an oral solution or suspension ranging from single doses of 0.3 to 400 mg and multiple doses of 30 to 200 mg.
(§3) For toxicokinetic studies, this method was validated over a concentration range of 10 to 1000 ng/mL for a 50 μL plasma sample. Radiometric methods were used to measure [^14C]

The subject of a further series is healthy male volunteers. The series can be described thus: Human tolerability and safety, single and multiple dose clinical studies. As to the method:
as §2

In series [8] the test system is rats. The series can be described thus: Central nervous system - rat, locomotor activity. Particulars: oral, up to 300 mg/kg. The format is in vivo.
From the text: (§5) For in vivo studies, the oral route of exposure was used. Rats given diazepam or frusemide served as positive controls in the locomotor activity and fluid/electrolyte excretion studies, respectively. […] Positive controls or animals given positive controls were not assessed concurrently in the remaining studies as these studies utilized well-characterized models to evaluate safety parameters.
Series [9] has as its system rats. As to the kind of experiment: Renal - rat, fluid and electrolyte excretion. The class given is in vivo. Particulars: oral, 3, 30, 300 mg/kg.
From the text: as §5
The subject of series [10] is rats. As to the kind of experiment: Pulmonary function - rat, respiratory parameters. The class given is in vivo. The note with it: oral, up to 300 mg/kg.
From the text: as §5
A further series relates to dogs. As to the kind of experiment: Cardiovascular - conscious dogs, hemodynamic and ECG parameters. The format is in vivo, dog.
From the text: as §1
These cardiovascular effects are consistent with cGMP elevation in vascular smooth muscle, resulting from inhibition of cGMP-specific PDE5.

A further series can be described thus: Pharmacokinetics in rats. The class given is in vivo, rat. As to the method: as §3
The next series in a line: Pharmacokinetics in dogs. The format is in vivo, dog. As to the method:
as §3

Series [11] in a line: Excretion of total radioactivity in rats. The format is in vivo, rat. As to the method:
as §3

Series [12] can be described thus: Excretion of total radioactivity in dogs. The format is in vivo, dog. As to the method:
as §3

A short description of series [13]: Tissue distribution study in rats, radio labeled compound. The note with it: radio labeled Example 1. The format is in vivo, rat.
In a further series the target is CYP1A2 (Homo sapiens, UniProt P05177). The series can be described thus: CYP inhibition in human liver microsomes. The format is in vitro ADME.
A further series deals with T4, CYP2C9 (Homo sapiens, UniProt P11712).
T4 construct: was determined in human liver microsomes; from tissue; host or cells: human liver microsomes
T4 sequence (P11712 whole entry): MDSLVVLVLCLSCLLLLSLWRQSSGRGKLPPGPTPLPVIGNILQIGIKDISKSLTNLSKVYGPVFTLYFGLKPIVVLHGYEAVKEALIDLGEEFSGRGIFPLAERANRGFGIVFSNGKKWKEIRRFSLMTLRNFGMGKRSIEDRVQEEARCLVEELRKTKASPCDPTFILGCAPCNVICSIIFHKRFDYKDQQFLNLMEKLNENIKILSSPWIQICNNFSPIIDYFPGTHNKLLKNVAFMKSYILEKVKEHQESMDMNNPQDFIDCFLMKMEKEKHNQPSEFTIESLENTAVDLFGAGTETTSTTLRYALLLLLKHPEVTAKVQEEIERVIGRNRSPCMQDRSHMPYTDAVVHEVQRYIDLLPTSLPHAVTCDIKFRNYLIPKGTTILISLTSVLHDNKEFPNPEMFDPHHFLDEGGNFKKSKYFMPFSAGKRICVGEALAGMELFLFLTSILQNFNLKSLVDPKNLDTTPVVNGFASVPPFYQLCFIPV
As to the kind of experiment: CYP inhibition in human liver microsomes. The format is in vitro ADME. In general terms: Liver microsomes are a subcellular fraction often used to study metabolism.

The target in the next series is T5, CYP2C19 (Homo sapiens, UniProt P33261).
T5 construct: was determined in human liver microsomes; from tissue; host or cells: human liver microsomes
T5 sequence (P33261 whole entry): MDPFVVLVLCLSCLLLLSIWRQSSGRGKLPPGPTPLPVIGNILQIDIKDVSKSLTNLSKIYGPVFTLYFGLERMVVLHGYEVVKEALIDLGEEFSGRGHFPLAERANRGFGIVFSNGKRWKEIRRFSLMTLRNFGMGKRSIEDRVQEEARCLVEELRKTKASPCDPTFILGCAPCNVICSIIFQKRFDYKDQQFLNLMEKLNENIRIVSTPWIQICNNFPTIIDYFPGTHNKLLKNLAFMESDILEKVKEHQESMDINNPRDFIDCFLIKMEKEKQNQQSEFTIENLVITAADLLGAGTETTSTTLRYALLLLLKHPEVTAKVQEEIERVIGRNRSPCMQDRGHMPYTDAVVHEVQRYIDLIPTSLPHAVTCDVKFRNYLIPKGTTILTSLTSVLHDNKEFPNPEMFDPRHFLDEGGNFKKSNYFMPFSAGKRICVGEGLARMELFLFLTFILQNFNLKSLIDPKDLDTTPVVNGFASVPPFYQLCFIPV
The series can be described thus: CYP inhibition in human liver microsomes. The format is in vitro ADME.

Another series deals with T6, CYP2D6 (Homo sapiens, UniProt P10635).
T6 construct: was determined in human liver microsomes; from tissue; host or cells: human liver microsomes
T6 sequence (P10635 whole entry): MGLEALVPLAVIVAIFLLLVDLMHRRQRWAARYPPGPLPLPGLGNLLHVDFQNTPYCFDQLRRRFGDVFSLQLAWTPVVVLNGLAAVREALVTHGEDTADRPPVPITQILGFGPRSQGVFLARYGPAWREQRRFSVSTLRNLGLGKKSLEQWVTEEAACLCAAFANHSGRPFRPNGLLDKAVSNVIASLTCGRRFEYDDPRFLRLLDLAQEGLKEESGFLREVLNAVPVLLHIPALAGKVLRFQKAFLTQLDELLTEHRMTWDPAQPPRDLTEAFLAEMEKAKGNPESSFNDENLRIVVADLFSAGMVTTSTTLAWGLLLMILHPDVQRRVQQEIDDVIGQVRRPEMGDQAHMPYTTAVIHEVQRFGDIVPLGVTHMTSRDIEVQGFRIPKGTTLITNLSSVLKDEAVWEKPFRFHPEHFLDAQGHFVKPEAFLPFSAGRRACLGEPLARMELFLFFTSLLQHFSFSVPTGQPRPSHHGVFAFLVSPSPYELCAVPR
The series can be described thus: CYP inhibition in human liver microsomes. The class given is in vitro ADME.

The target of a further series is CYP3A4 (Homo sapiens, UniProt P08684). The series can be described thus: CYP inhibition in human liver microsomes. The format is in vitro ADME. Particulars: probe midazolam, testosterone and felodipine.
Sequence of CYP3A4 (P08684 whole entry): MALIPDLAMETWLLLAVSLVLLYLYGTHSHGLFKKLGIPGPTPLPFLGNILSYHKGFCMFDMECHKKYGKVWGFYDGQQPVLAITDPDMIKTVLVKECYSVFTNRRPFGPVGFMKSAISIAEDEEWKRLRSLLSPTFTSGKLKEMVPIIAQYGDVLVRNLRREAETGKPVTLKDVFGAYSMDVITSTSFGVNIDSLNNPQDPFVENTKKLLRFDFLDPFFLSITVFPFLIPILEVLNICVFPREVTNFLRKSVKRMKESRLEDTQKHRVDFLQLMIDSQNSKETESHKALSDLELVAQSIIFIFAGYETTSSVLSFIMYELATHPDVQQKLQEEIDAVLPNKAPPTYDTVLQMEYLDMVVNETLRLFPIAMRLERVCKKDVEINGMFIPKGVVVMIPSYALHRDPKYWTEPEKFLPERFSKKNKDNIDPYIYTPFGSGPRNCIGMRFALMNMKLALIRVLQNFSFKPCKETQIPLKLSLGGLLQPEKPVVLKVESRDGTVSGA
Series [14] has as its system major human cytochrome P450 enzymes. As to the kind of experiment: Inhibition of the major human cytochrome P450 enzymes. The format is in vitro ADME.
For series [15], the system named is Salmonella typhimurium (Strains TA-1535, TA-1537) and Escherichia coli (Strain WP2uvrA). The series can be described thus: Microbial reverse mutation (mutagenicity). The format is cell-based. The arrangement: dose or concentration left out as unconfirmed. The note with it: (±S9). As to the method: (§4) Study designs and dose selection were consistent with International Conference on Harmonization and Organization for Economic Cooperation and Development guidelines for mutagenicity and clastogenicity assays. All in vitro tests were conducted with and without exogenous metabolic activation using concentrations up to those limited by cytotoxicity or insolubility.

Series [16] relates to Human Peripheral Lymphocytes. The series can be described thus: In vitro cytogenetic assay, structural chromosome aberration. The note with it: 100, 350, 500 μg/mL (3 h − S9); 100, 200, 350 μg/mL (3 h + S9); 12.5, 50, 100 μg/mL (24 h − S9). The class given is cell-based. As to the method:
as §4

Another series relates to Rat Bone Marrow. As to the kind of experiment: Micronucleus assay in rat bone marrow. The format is in vivo. Particulars: 100, 300, 600 mg/kg/day. As to the method:
as §4

In the next series the test system is mice. The note with it: mouse, in vivo, 14 days.
For series [17], the system named is rats. The note with it: rat, in vivo.
The nature of series [18]: in vitro. Particulars: rat, plasma.
Series [19] in a line: in vitro. The note with it: dog, plasma.
The nature of series [20]: in vitro. Particulars: human, plasma.
Series [21] is described as follows: in vitro. The note with it: rabbit, plasma.
For series [22], the system named is Type II diabetic male patients. As to the kind of experiment: Microalbuminuria in Type II diabetic patients (FIG. 1). The class given is in vivo, human. Particulars: 50 mg daily for 30 days (n=20), relative to baseline or placebo.

Entries after “also recorded” stand apart in the source; their conditions may differ.

For `CCOCCn1nc(C(=O)NS(C)(=O)=O)c2nc(N(C)CC)nc(Nc3cc(C)ccn3)c21` [Example 1 (polymorph form C), 1-(2-ethoxyethyl)-5-(ethyl(methyl)amino)-7-((4-methylpyridin-2-yl)amino)-N-(methylsulfonyl)-1H-pyrazolo[4,3-d]pyrimidine-3-carboxamide], the “Systemic exposure, polymorph form C versus form B” value in series [1] and in series [2] was “no differences in systemic exposure” in each case.

By IC50 is commonly meant the point on the concentration scale where inhibition reaches its midpoint. As usually defined, the EC50 is the concentration giving half of the maximal effect. The term Cmax denotes the maximum level reached in the sampled fluid or tissue. One may read the half-life as the time needed for the level to fall by half in the phase considered. Broadly, the bioavailability is the share of a dose that reaches the circulation, judged against a reference dose that is usually intravenous. As a reminder, the fraction unbound is the share of the substance not bound to proteins or other matrix. As for `CCOCCn1nc(C(=O)NS(C)(=O)=O)c2nc(N(C)CC)nc(Nc3cc(C)ccn3)c21` [Example 1, 1-(2-ethoxyethyl)-5-(ethyl(methyl)amino)-7-((4-methylpyridin-2-yl)amino)-N-(methylsulfonyl)-1H-pyrazolo[4,3-d]pyrimidine-3-carboxamide], the IC50 is 0.93 nM against rat PDE5; 0.65 nM in series [3]; 28.9 nM in [6]; 63.6 nM in series [7]; 26.3 nM at human PDE11; > 30000 nM against CYP1A2. Also, the IC50 against CYP2C9, against CYP2C19, against CYP2D6 and on CYP3A4 was > 30000 nM each time. The EC50 in [4] is 3.1 nM. Besides, the “Effect on mean arterial pressure (MAP)” value in series [5] is listed as “significant, sustained reduction in MAP”. Besides, in [5] (combined with an ACE inhibitor), the “Effect on MAP in combination” value is “greater MAP lowering effects than the ACE inhibitor alone”. The “Free plasma concentration giving significant MAP reduction, as multiple of rat PDE5 IC50” value in series [5] (daily oral dosing) is “approximately 7 fold”. Also, the “ECmax (maximally efficacious concentration)” value in [5] (oral dosing, unbound plasma concentration) is “ECmax = 6.5 nM”. For the same molecule, the “Effects in dog Purkinje fiber assay” value in the series on dog Purkinje fiber was “No relevant effects”. Moreover, the Cmax in “clinical” (30 mg) was 1570 to 1630 ng/mL; in the series “Pharmacokinetics in dogs” (dog, plasma, dogs, 5 mg/kg oral), 12800 ng/mL. The half-life in the series “clinical” (Human Half-life) and in the series “clinical” (Terminal half-life) was 11.9 to 15.7 h in each case. Further, the “Changes in vital signs, ECGs, laboratory safety test results, or physical examination results” value in the series on healthy male volunteers (healthy male volunteers, any dose) is “No significant changes”. In addition, the “Tolerability of multiple doses” value in the series with healthy male volunteers (human, in vivo) is given as “well tolerated”. For the same molecule, the “Tolerability of single doses” value in the series on healthy male volunteers (human, in vivo, po) is recorded as “well tolerated”. Besides, the “Effects on ECG parameters” value in the series on healthy male volunteers (humans, single and multiple doses) is recorded as “No clinically-relevant effects”; with dogs (dogs), “not associated with any relevant effects”. Besides, the “Effects on locomotor activity” value in the series on rats [8] is “minor, nondose-related effects consisting of decreased rearing and center rearing”. Besides, in the series on rats [9], the “Effect on urine volume and electrolyte excretion” value was “dose-related decrease”. Further, the “Effects on pulmonary function” value in the series on rats [10] is on record as “no adverse effects”. Besides, the “Effect on blood pressure and left ventricular end-diastolic pressure” value in the series on dogs (dogs, 0.5, 1.5, and 5 mg/kg) is given as “small, but significant reductions”. Moreover, the Steady-state distribution volume result in “Pharmacokinetics in rats” (rat) and in the series “Pharmacokinetics in dogs” (dog) was “lower than total body water” throughout. For the same molecule, the bioavailability is 82% in “Pharmacokinetics in rats” (rat, plasma, po, rats, single dose, read-out: Absolute oral bioavailability) and 77% in the series “Pharmacokinetics in dogs” (dog, plasma, po, dogs, single dose, read-out: Absolute oral bioavailability). Moreover, the “Half-life (in words)” value in the series “Pharmacokinetics in rats” (rats) and in the series “Pharmacokinetics in dogs” (dogs) was “long half-life values” each time. For the same molecule, the “Oral bioavailability (in words)” value in the series “Pharmacokinetics in rats” (rats) and in “Pharmacokinetics in dogs” (dogs) was “high” in each case. The Plasma clearance entry in the series “Pharmacokinetics in rats” (rats, intravenous administration) is on record as “low clearance; also recorded: lower that the liver-blood flow”; in “Pharmacokinetics in dogs” (dogs, intravenous administration), “low clearance; also recorded: lower that the liver-blood flow”. Besides, the “Dog Cmax as multiple of human Cmax” value in the series “Pharmacokinetics in dogs” (dogs 5 mg/kg versus humans 30 mg dose) was ~8 times. The “Administered dose (total radioactivity) eliminated in feces” value in series [11] and in series [12] was “greater than 80%” each time. Besides, the “Time within which the majority of the radioactivity was recovered” value in series [11] and in series [12] was ≤ 48 h each time. Further, the Total radioactivity recovered entry in [11] and in series [12] was “greater than 92%” in each case. Also, the Tissue distribution result in series [13] is recorded as “systemic distribution was generally in proportion to tissue-blood flow”. For the same molecule, the “Inhibition of the major human cytochrome P450 enzymes” value in series [14] is “no significant inhibition”. In addition, the Mutagenicity result in series [15] is listed as “Negative”. In addition, the “Clastogenicity in vitro, structural chromosome aberration result” value in [16] was “Negative”. Besides, in the series on Rat Bone Marrow, the “Micronucleus assay in rat bone marrow result” value is on record as “Negative”. For the same molecule, the Maximum non-lethal dose in the series with mice and in the series on rats [17] (14 days) was 2000 mg/kg in each case. Further, the “Single dose toxicity findings” value in the series with rats [17] was “No toxicity was observed”. Moreover, the fraction unbound was 0.007 in the series “in vitro [18]”, 0.007 in the series “in vitro [19]”, 0.007 in “in vitro [20]” and 0.012 in “in vitro [21]”.

In the series “clinical” (Human Half-life), `CCCc1nn(C)c2c(=O)[nH]c(-c3cc(S(=O)(=O)N4CCN(C)CC4)ccc3OCC)nc12` [Sildenafil, sildenafil] had a half-life of 3.7 h. For the same molecule, the Microalbuminuria / albuminuria result in [22] is recorded as “reduces albuminuria”; in series [22] (listed as sildenafil citrate) it was “significantly decreased”.

Turning to `CCOC(=O)[C@H](CCc1ccccc1)N[C@@H](C)C(=O)N1CCC[C@H]1C(=O)O` [enalapril, reference compound], the “Effect on mean arterial pressure (MAP)” value in [5] is recorded as “significant, sustained reduction in MAP”.
